# According to patent US10022461B2, “Pyrrolo[2,3-C]pyridines as imaging agents for neurofibrilary tangles” (MERCK SHARP & DOHME CORP., priority 2014, dated 2018):
# Target: tau (Homo sapiens, UniProt P10636)
# Test: displacement tau binding assay in AD brain homogenates with [^3H]-6
# Settings: Table 1, displacement of [^3H]-6 (0.25 nM)
# Method: The frozen human brain samples of Alzheimer's disease (AD) were purchased from Analytic Biological Services Inc. They were postmortem tissue from donors with clinical diagnosis of AD. As much of the white matter was dissected out of the frontal cortex in order to enrich the tissue preparations for gray matter. Brain homogenates of gray matter enriched frontal cortex were prepared by homogenizing the tissue in ice cold Phosphate Buffered Saline (PBS), pH 7.4 at 80 mg wet weight tissue per 1 mL for 45 seconds at 4° C. on setting 16 of Polytron. The homogenate was further diluted with ice cold PBS to 30 mg wet weight tissue per 1 mL and homogenized for an additional minute as described above. Homogenates were aliquoted in 5 ml/tube and store at −70° C. until use. […] Brain homogenates were diluted to 0.5 mg/mL from original 30 mg/mL volume in Assay Buffer, and 200 μl were added to the assay plate for a final concentration of 100 μg wet weight/assay tube. [^3H]-6 was prepared at […] final concentration in Assay Buffer plus 20% DMSO and 25 μl was added to the assay plate for final assay concentration of 0.25 nM. The assay plate was incubated at room temperature (25° C.) for 90 minutes. […] Filter plates were dried for 1 hour in a vacuum oven and 50 μl/well MicroScint-20 were added. Plates were counted 1 min per well by Packard Topcount. Total amount of radioligand used in the assay was determined by counting 25 μl of 10× ligand stock. […] Tau Ki data for representative compounds of the invention are found in Table 1.
# Chain of tau (P10636 2-758 limits assumed): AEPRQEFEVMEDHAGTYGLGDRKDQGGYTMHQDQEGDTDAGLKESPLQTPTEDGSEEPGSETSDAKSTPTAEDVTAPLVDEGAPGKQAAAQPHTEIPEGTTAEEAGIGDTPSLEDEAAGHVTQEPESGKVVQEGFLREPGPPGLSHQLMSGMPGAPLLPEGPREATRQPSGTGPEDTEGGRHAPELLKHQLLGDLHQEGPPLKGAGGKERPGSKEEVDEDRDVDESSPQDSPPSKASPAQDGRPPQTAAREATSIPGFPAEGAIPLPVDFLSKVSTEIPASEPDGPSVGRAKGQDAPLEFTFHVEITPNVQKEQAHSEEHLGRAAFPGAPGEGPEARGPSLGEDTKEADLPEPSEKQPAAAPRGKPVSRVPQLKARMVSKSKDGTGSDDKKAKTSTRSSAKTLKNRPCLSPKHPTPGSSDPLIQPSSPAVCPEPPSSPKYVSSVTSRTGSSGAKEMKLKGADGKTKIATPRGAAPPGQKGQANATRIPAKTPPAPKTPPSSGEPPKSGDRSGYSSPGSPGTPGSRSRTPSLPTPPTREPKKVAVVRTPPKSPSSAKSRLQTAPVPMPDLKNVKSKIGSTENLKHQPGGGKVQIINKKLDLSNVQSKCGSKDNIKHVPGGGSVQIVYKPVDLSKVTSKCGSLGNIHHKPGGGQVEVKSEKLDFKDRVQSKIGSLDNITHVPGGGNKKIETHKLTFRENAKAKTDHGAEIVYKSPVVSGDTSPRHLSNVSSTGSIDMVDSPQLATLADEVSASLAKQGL
row,Ki [nM],SMILES
1,0.32,COc1cccc2cc(-n3ccc4ccncc43)ncc12 [Compound 103]
2,1.13,"Fc1cc(-c2ccc(-n3ccc4ccncc43)nc2)ccn1 [Compound 44, 1-(6′-fluoro-3,4′-bipyridin-6-yl)-1H-pyrrolo[2,3-c]pyridine]"
3,1.02,c1cc2ccn(-c3ccc(-c4cncs4)cn3)c2cn1 [Compound 53]
4,2.44,"C=Cc1cc(-n2ccc3ccncc32)ncc1C#CCF [Compound 30, 1-(5-(3-fluoroprop-1-ynyl)-4-vinylpyridin-2-yl)-1H-pyrrolo[2,3-c]pyridine]"
5,2.23,CN(C)c1ccc2cnc(-n3ccc4ccncc43)cc2c1 [Compound 61]
6,1.65,"FCC#Cc1ccc(-n2ccc3ccncc32)nc1 [Compound 7, 1-(5-(3-fluoroprop-1-ynyl)pyridin-2-yl)-1H-pyrrolo[2,3-c]pyridine]"
7,3.34,"CC#Cc1cnc(-n2ccc3ccncc32)cc1OC [Compound 33, 1-(4-methoxy-5-(prop-1-ynyl)pyridin-2-yl)-1H-pyrrolo[2,3-c]pyridine]"
8,2.98,"Cc1cc(-n2ccc3ccncc32)ncc1OCCF [Compound 32, 1-(5-(2-fluoroethoxy)-4-methylpyridin-2-yl)-1H-pyrrolo[2,3-c]pyridine]"
9,1.14,FCOc1cccc2cc(-n3ccc4ccncc43)ncc12 [Compound 55]
10,8.8,"c1cc2ccn(-c3ccc(-c4nc[nH]n4)cn3)c2cn1 [Compound 41, 1-(5-(1H-1,2,4-triazol-3-yl)pyridin-2-yl)-1H-pyrrolo[2,3-c]pyridine]"
11,0.33,Nc1cccc2cc(-n3ccc4ccncc43)ncc12 [Compound 59]
12,12.8,"FCOc1ccc2nc(-n3ccc4ccncc43)ncc2c1 [Compound 24, 6-(fluoromethoxy)-2-(1H-pyrrolo[2,3-c]pyridin-1-yl)quinazoline]"
13,0.87,Cc1cc(-n2ccc3ccncc32)ncc1C#CCF [Compound 51]
14,0.43,"FCOc1ccc2cc(-n3ccc4ccncc43)ncc2c1 [Compound 17, 7-(fluoromethoxy)-3-(1H-pyrrolo[2,3-c]pyridin-1-yl)isoquinoline]"
15,2.28,"CN(CCF)c1ccc2cnc(-n3ccc4ccncc43)cc2c1 [Compound 14, N-(2-fluoroethyl)-N-methyl-3-(1H-pyrrolo[2,3-c]pyridin-1-yl)isoquinolin-6-amine]"
16,52.3,"Fc1cc2ccn(-c3cc4ccccc4cn3)c2cn1 [Compound 38, 3-(5-fluoro-1H-pyrrolo[2,3-c]pyridin-1-yl)isoquinoline]"
17,4.96,"FCCNc1ccc(-n2ccc3ccncc32)nc1 [Compound 36, N-(2-fluoroethyl)-6-(1H-pyrrolo[2,3-c]pyridin-1-yl)pyridin-3-amine]"
18,0.29,"Nc1ccc2cc(-n3ccc4ccncc43)ncc2c1 [Compound 12, 3-(1H-pyrrolo[2,3-c]pyridin-1-yl)isoquinolin-7-amine]"
19,14.1,"Fc1nccc2cnc(-n3ccc4ccncc43)cc12 [Compound 25, 1-fluoro-7-(1H-pyrrolo[2,3-c]pyridin-1-yl)-2,6-naphthyridine]"
20,2.19,"c1cc(-c2ccc(-n3ccc4ccncc43)nc2)ncn1 [Compound 46, 1-(5-(pyrimidin-4-yl)pyridin-2-yl)-1H-pyrrolo[2,3-c]pyridine]"
21,1.71,"FCCn1ccc(-c2ccc(-n3ccc4ccncc43)nc2)n1 [Compound 104, 1-(5-(1-(2-fluoroethyl)-1H-pyrazol-3-yl)pyridin-2-yl)-1H-pyrrolo[2,3-c]pyridine]"
22,0.53,CNc1cc(-c2ccc(-n3ccc4ccncc43)nc2)ccn1 [Compound 93]

# Same assay, conditions: Table 2, displacement of [^3H]-6 (0.25 nM)
row,Ki [nM],SMILES
1,0.494,Nc1cc(F)c2cc(-n3ccc4ccncc43)ncc2c1 [Compound 114]
2,0.672,Nc1cc(F)cc2cc(-n3ccc4ccncc43)ncc12 [Compound 112]
3,0.383,"Nc1cc2cnc(-n3ccc4ccncc43)cc2cc1F [Compound 105, 6-fluoro-3-(1H-pyrrolo[2,3-c]pyridin-1-yl)isoquinolin-7-amine]"
4,0.224,Nc1cc(F)cc2cnc(-n3ccc4ccncc43)cc12 [Compound 115]
5,0.512,Nc1c(I)ccc2cc(-n3ccc4ccncc43)ncc12 [Compound 121]
6,10000,Nc1cccc2cnc(-n3ccc4ccnc(F)c43)cc12 [Compound 107]
7,1.28,Nc1ccc(F)c2cnc(-n3ccc4ccncc43)cc12 [Compound 116]
8,2,Nc1ccc(F)c2cc(-n3ccc4ccncc43)ncc12 [Compound 117]
9,0.18,Nc1cc2cc(-n3ccc4ccncc43)ncc2cc1I [Compound 126]
10,2.15,Nc1c(F)ccc2cc(-n3ccc4ccncc43)ncc12 [Compound 110]
11,1.09,Nc1ccc2cnc(-n3ccc4ccncc43)cc2c1F [Compound 111]
